Here are results for eleven molecules from patent US20140135310A1, “SULPHONAMIDE DERIVATIVES OF ALICYCLIC AMINES FOR THE TREATMENT OF CENTRAL NERVOUS SYSTEM DISEASES” (Adamed Sp. z o.o., priority 2011, published 2014).

What is called inhibition is the drop in the measured response relative to a control, in per cent. As a reminder, the Ki is the equilibrium dissociation constant of an inhibitor or competing ligand from its target.

Assay [1] has as its target T1, α2C adrenergic receptors (Homo sapiens, UniProt P18825).
T1 construct: expressed in transfected cells; host or cells: CHO cells
T1 sequence (P18825 1-462): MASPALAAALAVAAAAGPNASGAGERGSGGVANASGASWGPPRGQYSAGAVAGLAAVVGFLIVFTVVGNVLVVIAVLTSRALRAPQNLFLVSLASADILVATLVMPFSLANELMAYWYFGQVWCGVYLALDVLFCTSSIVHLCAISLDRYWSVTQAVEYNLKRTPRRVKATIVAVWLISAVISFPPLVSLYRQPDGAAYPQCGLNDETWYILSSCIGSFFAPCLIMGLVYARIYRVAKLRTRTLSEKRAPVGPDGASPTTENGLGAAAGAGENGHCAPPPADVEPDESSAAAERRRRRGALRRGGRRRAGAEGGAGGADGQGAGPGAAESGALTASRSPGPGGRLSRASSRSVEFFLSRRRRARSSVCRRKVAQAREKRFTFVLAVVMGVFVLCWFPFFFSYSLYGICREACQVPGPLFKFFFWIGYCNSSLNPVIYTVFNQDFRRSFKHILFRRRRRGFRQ
As to the kind of experiment: Radioligand binding assay, adrenergic α2C receptors. The conditions noted are these: test compound 1×10^−6 M. The essentials: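 Competitive radioligand binding at human α2C receptors, with scintillation counting. Nonspecific binding defined with excess unlabelled ligand; results given as % inhibition of control specific binding. IC50 from Hill-equation fits of competition curves; Ki via Cheng-Prusoff using radioligand concentration and Scatchard-derived KD.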

Assay [2] has as its target T2, 5-HT7 receptor (Homo sapiens, UniProt P34969).
T2 construct: purchased PerkinElmer
As to the kind of experiment: Radioligand binding assay, serotoninergic 5-HT7 receptors. The conditions noted are these: binding assay result in %, Table 5a. In outline:
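Competition binding at human 5-HT7 receptors with a radioligand, detected by scintillation counting; non-specific binding was defined with excess unlabelled ligand. IC50 came from Hill-equation fits of competition curves, and Ki from Cheng–Prusoff using radioligand concentration and Scatchard-derived KD.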

Assay [3] deals with T3, H1 histaminergic receptors (Homo sapiens, UniProt P35367).
T3 construct: expressed in transfected cells; host or cells: HEK-293 cells
T3 sequence (P35367 whole entry): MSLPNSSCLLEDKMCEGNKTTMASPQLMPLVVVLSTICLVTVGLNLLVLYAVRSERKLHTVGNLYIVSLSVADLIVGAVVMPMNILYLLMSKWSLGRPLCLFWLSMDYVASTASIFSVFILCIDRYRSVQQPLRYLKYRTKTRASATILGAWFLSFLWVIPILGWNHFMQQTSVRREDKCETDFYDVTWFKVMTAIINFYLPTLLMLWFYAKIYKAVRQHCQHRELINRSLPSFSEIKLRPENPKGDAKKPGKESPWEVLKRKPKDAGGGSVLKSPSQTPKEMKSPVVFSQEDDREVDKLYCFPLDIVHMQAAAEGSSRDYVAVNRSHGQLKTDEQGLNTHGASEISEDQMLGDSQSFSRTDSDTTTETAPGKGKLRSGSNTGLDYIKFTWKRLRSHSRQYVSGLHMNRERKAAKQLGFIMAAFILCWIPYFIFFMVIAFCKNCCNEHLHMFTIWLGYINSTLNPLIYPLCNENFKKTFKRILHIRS
As to the kind of experiment: Radioligand binding assay, histaminergic H1 receptors. The conditions noted are these: human recombinant (HEK-293 cells), [3H]pyrilamine 1 nM. In outline:
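Competition binding at human H1 receptors; specific binding taken as total minus non-specific binding in excess unlabelled ligand, scintillation read-out. IC50 from Hill-equation fit of competition curves; Ki by Cheng-Prusoff using radioligand concentration and Kd (from Scatchard plot).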

The target of assay [4] is T4, 5-HT2C receptor (Homo sapiens, UniProt P28335).
T4 construct: expressed in transfected cells; host or cells: HEK-293 cells
T4 sequence (P28335 33-458): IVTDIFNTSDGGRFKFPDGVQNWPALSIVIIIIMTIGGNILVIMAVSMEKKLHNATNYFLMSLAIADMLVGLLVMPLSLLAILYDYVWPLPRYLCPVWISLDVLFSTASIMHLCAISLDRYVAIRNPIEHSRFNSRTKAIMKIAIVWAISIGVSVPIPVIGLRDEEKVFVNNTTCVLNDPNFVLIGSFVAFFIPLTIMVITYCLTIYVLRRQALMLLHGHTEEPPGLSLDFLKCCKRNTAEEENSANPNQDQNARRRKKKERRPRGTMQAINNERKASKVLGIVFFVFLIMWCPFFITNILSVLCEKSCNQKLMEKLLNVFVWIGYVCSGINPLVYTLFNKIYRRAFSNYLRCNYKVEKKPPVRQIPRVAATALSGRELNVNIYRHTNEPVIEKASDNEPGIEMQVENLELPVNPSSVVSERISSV
Put plainly: Radioligand binding assay, serotoninergic 5-HT2C receptors. The conditions noted are these: test compound 1×10^−6 M.

Assay [5] addresses dopaminergic receptors D2 (Homo sapiens, UniProt P14416). As to the kind of experiment: Radioligand binding assay, dopaminergic D2 receptors. The conditions noted are these: for inhibition at 1 µM: binding assay, test compound 1×10^−6 M; for Ki: read-out: Inhibition constants Ki for D2 receptors, D2. The essentials:
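Total binding is counted by scintillation and non-specific binding subtracted using an excess of unlabelled ligand. IC50 comes from a Hill-equation fit with slope factor; Ki follows Cheng–Prusoff.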

Assay [6] deals with T5, 5-HT1A receptor (rat hippocampus) (Rattus norvegicus, UniProt P19327).
T5 construct: hippocampus; from tissue; host or cells: rat hippocampus
T5 sequence (P19327 1-422): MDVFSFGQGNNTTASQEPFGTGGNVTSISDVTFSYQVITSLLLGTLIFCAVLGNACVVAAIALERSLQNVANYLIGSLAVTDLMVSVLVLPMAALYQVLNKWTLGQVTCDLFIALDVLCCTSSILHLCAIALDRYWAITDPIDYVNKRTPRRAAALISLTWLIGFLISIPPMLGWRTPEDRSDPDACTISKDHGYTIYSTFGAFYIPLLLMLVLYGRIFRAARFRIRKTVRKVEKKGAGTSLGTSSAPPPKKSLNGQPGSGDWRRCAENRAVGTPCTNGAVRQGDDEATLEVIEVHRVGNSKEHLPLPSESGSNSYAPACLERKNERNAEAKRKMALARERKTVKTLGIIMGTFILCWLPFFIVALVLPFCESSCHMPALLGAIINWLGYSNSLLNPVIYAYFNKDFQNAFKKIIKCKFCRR
As to the kind of experiment: Radioligand binding assay, serotoninergic 5-HT1A receptors. The conditions noted are these: binding assay result in %, Table 5a.

The target in assay [7] is T6, serotonin transporter (SERT) (Homo sapiens, UniProt P31645).
T6 construct: expressed in transfected cells; host or cells: CHO cells
T6 sequence (P31645 whole entry): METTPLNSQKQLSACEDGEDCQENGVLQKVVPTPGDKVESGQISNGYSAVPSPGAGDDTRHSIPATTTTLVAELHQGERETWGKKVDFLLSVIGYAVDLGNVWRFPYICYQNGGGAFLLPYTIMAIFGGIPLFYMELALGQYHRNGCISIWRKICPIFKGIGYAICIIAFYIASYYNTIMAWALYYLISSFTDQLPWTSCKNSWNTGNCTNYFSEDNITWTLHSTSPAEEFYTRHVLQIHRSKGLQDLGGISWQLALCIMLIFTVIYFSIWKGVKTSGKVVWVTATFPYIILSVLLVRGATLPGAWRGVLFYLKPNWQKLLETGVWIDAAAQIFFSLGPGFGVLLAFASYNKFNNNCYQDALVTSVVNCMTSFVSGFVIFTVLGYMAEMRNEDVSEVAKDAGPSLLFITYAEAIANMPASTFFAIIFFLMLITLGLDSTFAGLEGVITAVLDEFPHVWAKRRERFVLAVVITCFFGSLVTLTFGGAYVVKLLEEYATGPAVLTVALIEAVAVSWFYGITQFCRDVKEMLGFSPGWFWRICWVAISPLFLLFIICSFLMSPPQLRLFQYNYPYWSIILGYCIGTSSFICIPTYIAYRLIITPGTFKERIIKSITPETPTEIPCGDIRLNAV
Put plainly: Radioligand binding assay, serotonin transporter (SERT). The conditions noted are these: binding assay, test compound 1×10^−6 M. In outline:
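Radioligand competition binding with scintillation detection; specific binding is total minus binding under excess unlabelled ligand. Reported as % of control specific binding or % inhibition; IC50 from Hill-equation non-linear regression of competition curves, and Ki via Cheng-Prusoff using radioligand concentration and Scatchard-derived KD.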

Chain of dopaminergic receptors D2 (P14416 whole entry): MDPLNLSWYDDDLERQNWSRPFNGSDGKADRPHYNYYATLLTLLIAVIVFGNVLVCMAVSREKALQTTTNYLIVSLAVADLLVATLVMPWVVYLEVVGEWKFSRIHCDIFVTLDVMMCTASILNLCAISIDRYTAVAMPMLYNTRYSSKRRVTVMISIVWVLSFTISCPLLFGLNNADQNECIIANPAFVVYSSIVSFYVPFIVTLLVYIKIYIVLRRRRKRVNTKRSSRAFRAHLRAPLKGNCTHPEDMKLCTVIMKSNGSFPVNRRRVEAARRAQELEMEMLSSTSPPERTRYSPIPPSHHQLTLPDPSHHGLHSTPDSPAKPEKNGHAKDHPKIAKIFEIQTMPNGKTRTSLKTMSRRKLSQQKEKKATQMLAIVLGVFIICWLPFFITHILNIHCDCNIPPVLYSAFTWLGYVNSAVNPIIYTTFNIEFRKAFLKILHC
T2 sequence (P34969 whole entry): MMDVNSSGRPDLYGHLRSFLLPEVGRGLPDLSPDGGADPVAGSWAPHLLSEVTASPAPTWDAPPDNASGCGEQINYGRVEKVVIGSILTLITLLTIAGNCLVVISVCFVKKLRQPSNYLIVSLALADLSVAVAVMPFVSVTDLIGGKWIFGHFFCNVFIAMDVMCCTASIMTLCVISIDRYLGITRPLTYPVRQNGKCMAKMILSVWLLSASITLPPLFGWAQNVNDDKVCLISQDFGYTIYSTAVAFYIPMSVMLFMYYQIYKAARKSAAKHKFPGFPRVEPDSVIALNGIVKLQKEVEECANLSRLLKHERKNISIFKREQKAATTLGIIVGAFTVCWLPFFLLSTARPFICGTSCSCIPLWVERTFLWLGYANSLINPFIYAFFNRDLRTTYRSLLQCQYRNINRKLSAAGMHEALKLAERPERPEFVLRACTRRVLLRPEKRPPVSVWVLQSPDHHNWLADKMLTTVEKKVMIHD

Regarding `COc1cccc(S(=O)(=O)NCC2CN(CCCc3noc4cc(F)ccc34)C2)c1` [Compound 143, N-[[1-[3-(6-Fluoro-1,2-benzoxazol-3-yl)propyl]azetidin-3-yl]methyl]-3-methoxy-benzenesulphonamide], the inhibition at 1 µM in assay [1] is 78%; in assay [2], 87%; in assay [3] it was 36%; in assay [4], 68%; in assay [5], 80%; in assay [6], 44%. The inhibition at 1 µM in assay [7] came out at 6%.

On to `CC(C)(C)c1ccc(S(=O)(=O)NCC2CN(CCOc3cccc4c3OCCO4)C2)cc1` [Compound 181, 4-tert-Butyl-N-[[1-[2-(2,3-dihydro-1,4-benzodioxin-5-yloxy)ethyl]azetidin-3-yl]methyl]benzenesulphonamide], for which the inhibition at 1 µM in assay [1] came to 96%; in assay [2], 92%; in assay [3], 27%; in assay [4], 93%; in assay [5] it was 73%; in assay [6], 98%. In addition, in assay [7], the inhibition at 1 µM worked out at 26%.

`O=S(=O)(NCC1CN(CCOc2cccc3c2OCCO3)C1)c1ccc(Cl)c(Cl)c1` [Compound 183, 3,4-Dichloro-N-[[1-[2-(2,3-dihydro-1,4-benzodioxin-5-yloxy)ethyl]azetidin-3-yl]methyl]benzenesulphonamide]: the inhibition at 1 µM was determined as 99% in assay [1]; 102% in assay [2]; 42% in assay [3]; 98% in assay [4]; 92% in assay [5]; 98% in assay [6]. In assay [7], the inhibition at 1 µM worked out at 48%.

As to `O=S(=O)(NCC1CN(CCOc2cccc3c2OCCO3)C1)c1cc2ccccc2o1` [Compound 186, N-[[1-[2-(2,3-Dihydro-1,4-benzodioxin-5-yloxy)ethyl]azetidin-3-yl]methyl]-benzofuran-2-sulphonamide], the inhibition at 1 µM was 96% in assay [1]; 97% in assay [2]; 17% in assay [3]; 79% in assay [4]; 77% in assay [5]; 98% in assay [6]. Moreover, the inhibition at 1 µM in assay [7] turned out to be 39%.

For `O=S(=O)(N[C@@H]1CCN(CCCc2noc3cc(F)ccc23)C1)c1cc2ccccc2s1` [Compound 196, N-[(3R)-1-[3-(6-Fluoro-1,2-benzoxazol-3-yl)propyl]pyrrolidin-3-yl]benzo-thiophene-2-sulphonamide], the inhibition at 1 µM in assay [1] was 89%; in assay [2], 101%; in assay [3], 84%; in assay [4], 86%; in assay [5], 100%; in assay [6], 54%. For the same molecule, in assay [7], the inhibition at 1 µM turned out to be 42%. Further, the Ki in assay [5] came to 0.8 nM.

On to `O=S(=O)(N[C@H]1CCN(CCCc2noc3cc(F)ccc23)C1)c1cc2ccccc2s1` [Compound 197, N-[(3S)-1-[3-(6-Fluoro-1,2-benzoxazol-3-yl)propyl]pyrrolidin-3-yl]benzo-thiophene-2-sulphonamide], for which the inhibition at 1 µM amounted to 90% in assay [1]; 101% in assay [2]; 76% in assay [3]; 84% in assay [4]; 101% in assay [5]; 56% in assay [6]. In addition, the inhibition at 1 µM in assay [7] amounted to 58%. Moreover, the Ki in assay [5] was determined as 5.8 nM.

Consider `O=S(=O)(N[C@@H]1CCN(CCCc2noc3cc(F)ccc23)C1)c1cc2ccc(Cl)cc2s1` [Compound 198, 6-Chloro-N-[(3R)-1-[3-(6-fluoro-1,2-benzoxazol-3-yl)propyl]pyrrolidin-3-yl]benzothiophene-2-sulphonamide], for which the inhibition at 1 µM in assay [1] is 80%; in assay [2], 93%; in assay [3], 81%; in assay [4], 86%; in assay [5] it was 99%; in assay [6], 45%. For the same molecule, the inhibition at 1 µM in assay [7] worked out at 44%. Further, the inhibitory constant (Ki) in assay [5] stood at 1.8 nM.

Regarding `O=S(=O)(N[C@H]1CCN(CCCc2noc3cc(F)ccc23)C1)c1cc2ccc(Cl)cc2s1` [Compound 199, 6-Chloro-N-[(3S)-1-[3-(6-fluoro-1,2-benzoxazol-3-yl)propyl]pyrrolidin-3-yl]benzothiophene-2-sulphonamide], the inhibition at 1 µM in assay [1] was determined as 82%; in assay [2], 94%; in assay [3], 58%; in assay [4], 83%; in assay [5], 96%; in assay [6], 38%. In assay [7], the inhibition at 1 µM stood at 39%. Further, in assay [5], the Ki stood at 4.4 nM.

With `O=S(=O)(N[C@H]1CCN(CCCc2noc3cc(F)ccc23)C1)c1ccc2cc(Cl)ccc2c1` [Compound 201, 6-Chloro-N-[(3S)-1-[3-(6-fluoro-1,2-benzoxazol-3-yl)propyl]pyrrolidin-3-yl]naphthalene-2-sulphonamide], the inhibition at 1 µM in assay [1] was 89%; in assay [2] it was 95%; in assay [3], 64%; in assay [4], 72%; in assay [5], 99%; in assay [6] it was 32%. For the same molecule, in assay [7], the inhibition at 1 µM is 59%. The Ki in assay [5] was found to be 15 nM.

For the molecule `Cc1c(S(=O)(=O)N[C@H]2CCN(CCCc3noc4cc(F)ccc34)C2)sc2ccc(F)cc12` [Compound 203, 5-Fluoro-N-[(3S)-1-[3-(6-fluoro-1,2-benzoxazol-3-yl)propyl]pyrrolidin-3-yl]-3-methyl-benzothiophene-2-sulphonamide], the inhibition at 1 µM in assay [1] is 93%; in assay [2], 99%; in assay [3], 67%; in assay [4], 90%; in assay [5] it was 101%; in assay [6], 60%. For the same molecule, in assay [7], the inhibition at 1 µM turned out to be 73%. In assay [5], the Ki was 0.9 nM.

`Cc1c(S(=O)(=O)N[C@H]2CCN(CCCc3noc4cc(F)ccc34)C2)sc2ccc(Cl)cc12` [Compound 205, 5-Chloro-N-[(3S)-1-[3-(6-fluoro-1,2-benzoxazol-3-yl)propyl]pyrrolidin-3-yl]-3-methyl-benzothiophene-2-sulphonamide]: the inhibition at 1 µM in assay [1] came to 86%; in assay [2], 98%; in assay [3], 50%; in assay [4] it was 86%; in assay [5] it was 99%; in assay [6], 63%. In addition, the inhibition at 1 µM in assay [7] is 45%. Further, the inhibitory constant (Ki) in assay [5] was 1.6 nM.
